Experimental data taken from patent US5320094A (The Johns Hopkins University, priority 1992, dated 1994).
Values joined by “and” are separate entries in the source; they are usually repeats but may differ in a detail not shown here. Equal entries are not always repeated. Where two headings read alike, the source gives them in different places.

How the values were obtained:
[1] = for Peak Insulin Level: fasting
Text: The timing of each aerosol actuation was controlled by a Rosenthal-French dosimeter and lasted for one second. […] Inspiratory flow rate at the time of aerosol inhalation was regulated to less than 30 and, preferably about 17 liters/minute by rate limiting orifices of the type described above. During inhalation, patients inspired from residual volume to total lung capacity.
After the sixth actuation, aerosol was inhaled from the holding chamber through a mouthpiece. […]
To accomplish this dosing regime, volunteers inhaled 5-13 times from the holding chamber. Each inhalation was preceded by six actuations of the nebulizer.
(§1) Subjects 3, 4 and 6 were medicated with Glyburide 10 mg/day, 15 mg/day, and 5 mg/day, respectively. Subject No. 5 was treated with Diabinese 750 mg/day. Subject No. 7 was medicated with Glyburide 20 mg/day and Subject No. 8 was unmedicated. […] Blood samples were assessed at the time of collection for glucose levels with a glucose meter (Accuchek). Determinations of plasma glucose levels were also obtained from photometric reaction with glucose hexokinase using an Hitachi 736 and 737 chemical analyzer (Boehringer Mannheim Diagnostics). The reference range for fasting adults using this technique and equipment is 3.92-6.44 SI units. […] The expected range of values for normals in the fasting state, as provided by Diagnostics Products Corp., is 18-210 SI units. An IV saline solution was running, 50% glucose was available in case the blood glucose level decreased rapidly, and a diabetologist was present during the study. […] Studies were performed in the Johns Hopkins Outpatient Clinical Research Center. All patients who participated in these experiments gave informed consent to a written description of the study, which was approved by the Institutional Review Board.
When averaging decreases in blood glucose levels the data were normalized in terms of percent change from baseline.

rabbits = conditions: micellar form, intrajejunal administration, reduction in blood glucose; cited from earlier work
[2] = system: normal and NIDDM subjects; conditions: inhaled
Experimental: as §1

[3] = system: normal and non-insulin-dependent non-obese diabetic subjects; conditions: rectal suppository; cited from earlier work
diabetic subjects = conditions: intranasal bile-salt aerosol; cited from earlier work
[4] = system: normal subjects and non-insulin dependent diabetic (NIDDM) subjects; experiment: Blood glucose response after inhalation of aerosolized insulin; format: in vivo, human; conditions: for Maximum Decrease in Glucose (% of Baseline): fasting
Text: The timing of each aerosol actuation was controlled by a Rosenthal-French dosimeter and lasted for one second. […] The distance between the subject's mouth and the nebulizer reduced aerosol velocity and, thus, impaction of particles in the mouth. Inspiratory flow rate at the time of aerosol inhalation was regulated to less than 30 and, preferably about 17 liters/minute by rate limiting orifices of the type described above. During inhalation, patients inspired from residual volume to total lung capacity.
After the sixth actuation, aerosol was inhaled from the holding chamber through a mouthpiece. […] Each inhalation was proceeded by six actuations of the nebulizer.

[5] = NIDDM subject 3, 0.21 U/kg BW inhaled
[6] = NIDDM subject 4, 0.23 U/kg BW inhaled
[7] = NIDDM subject 5, 0.21 U/kg BW inhaled
[8] = NIDDM subject 6, 0.20 U/kg BW inhaled
[9] = NIDDM subject 7, 0.20 U/kg BW inhaled
[10] = NIDDM subject 8, 0.20 U/kg BW inhaled
[11] = eight subjects (second dose for subjects 1 and 2), mean dose 0.21 U/kg BW inhaled
[12] = normal subject 1, first dose, 0.09 U/kg BW inhaled
[13] = normal subject 1, second dose, 0.19 U/kg BW inhaled
[14] = normal subject 2, first dose, 0.11 U/kg BW inhaled
[15] = normal subject 2, second dose, 0.21 U/kg BW inhaled

insulin: regular U-500 pork insulin (Eli Lilly) aerosolized by a jet nebulizer; background citations concern insulin given by other routes
Time to Peak Insulin Level [1, 5]: 5 min | log Peak Insulin Level [1, 5]: 2.7694 | Peak Insulin Level [1, 5]: 588 SI units | Time to Peak Insulin Level [1, 6]: 15 min | log Peak Insulin Level [1, 6]: 2.2967 | Peak Insulin Level [1, 6]: 198 SI units | Time to Peak Insulin Level [1, 7]: 40 min | log Peak Insulin Level [1, 7]: 2.3096 | Peak Insulin Level [1, 7]: 204 SI units | Time to Peak Insulin Level [1, 8]: 52 min | log Peak Insulin Level [1, 8]: 2.3909 | Peak Insulin Level [1, 8]: 246 SI units | Time to Peak Insulin Level [1, 9]: 25 min | log Peak Insulin Level [1, 9]: 2.0569 | Peak Insulin Level [1, 9]: 114 SI units | Time to Peak Insulin Level [1, 10]: 100 min | log Peak Insulin Level [1, 10]: 2.7513 | Peak Insulin Level [1, 10]: 564 SI units | Return of blood insulin levels to baseline ([1]; approximately 0.2 U/kg BW inhaled, up to 200 minutes): did not return to baseline by the time the experiment was concluded in seven of the study subjects | Peak Insulin Level, geometric mean [1, 11]: 254 SI units | Time to Peak Insulin Level, mean [1, 11]: 35 min and 35 ± 31 min | log Peak Insulin Level, mean [1, 11]: 2.4055 | Insulin absorption across the lung mucosa compared with subcutaneous administration ([1]; inhaled aerosol): more rapid than following subcutaneous administration | Time to Peak Insulin Level [1, 12]: 10 min | log Peak Insulin Level [1, 12]: 2.1399 | Peak Insulin Level [1, 12]: 138 SI units | Time to Peak Insulin Level [1, 13]: 35 min | log Peak Insulin Level [1, 13]: 2.3345 | Peak Insulin Level [1, 13]: 216 SI units | Time to Peak Insulin Level [1, 14]: 5 min | log Peak Insulin Level [1, 14]: 2.4771 | Peak Insulin Level [1, 14]: 300 SI units | Time to Peak Insulin Level [1, 15]: 5 min | log Peak Insulin Level [1, 15]: 2.3345 | Peak Insulin Level [1, 15]: 216 SI units | Time at which blood insulin levels peaked post inhalation, range ([1]; range over all subjects and doses): between five and one hundred minutes | Required dose relative to intramuscular dose (rabbits): 25-50 times | Adverse symptoms from the respiratory tract [2]: No adverse symptoms from the respiratory tract were reported or signs observed | Adrenergic, hypoglycemic signs or symptoms ([2]; listed as Aerosolized insulin): lack of any signs or symptoms, including adrenergic symptoms | Tolerability of aerosolized insulin ([2]; listed as Aerosolized insulin): very well tolerated | Tolerability of aerosolized insulin ([2]; listed as aerosolized insulin): well-tolerated | Adrenergic, hypoglycemic signs or symptoms ([2]; listed as insulin aerosol): none of the subjects had adrenergic, hypoglycemic symptoms | Tolerability of aerosolized insulin ([2]; listed as insulin aerosol): well-tolerated | Complaints after rectal administration [3]: some subjects complained of abdominal discomfort or a feeling of rectal urgency | Dose necessary to lower blood glucose significantly, relative to subcutaneous dose [3]: 10 times | Amount of insulin absorbed through the nasal mucosa, relative to dose delivered by intravenous injection (diabetic subjects): approximately 10% | Dose required to lower blood glucose, relative to subcutaneous dose (diabetic subjects): 2.5 times | Local effects after intranasal administration (diabetic subjects): subjects reported nasal irritation and nasal congestion | Time to 10% Decrease in Glucose [4, 5]: 30 min | Time to Lowest Glucose Level [4, 5]: 150 min | Maximum Decrease in Glucose (% of Baseline) [4, 5]: 43% | Glucose level decreased to, after insulin inhalation ([4]; NIDDM subject 3, 0.21 U/kg BW inhaled, baseline 10.58): 6.05 SI units | Time to 10% Decrease in Glucose [4, 6]: 30 min | Time to Lowest Glucose Level [4, 6]: 160 min | Maximum Decrease in Glucose (% of Baseline) [4, 6]: 71% | Glucose level decreased to, after insulin inhalation ([4]; NIDDM subject 4, 0.23 U/kg BW inhaled, baseline 16.58): 4.82 SI units | Time to 10% Decrease in Glucose [4, 7]: 40 min | Time to Lowest Glucose Level [4, 7]: 200 min | Maximum Decrease in Glucose (% of Baseline) [4, 7]: 53% | Glucose level decreased to, after insulin inhalation ([4]; NIDDM subject 5, 0.21 U/kg BW inhaled, baseline 12.12): 5.71 SI units | Time to 10% Decrease in Glucose [4, 8]: 42 min | Time to Lowest Glucose Level [4, 8]: 140 min | Maximum Decrease in Glucose (% of Baseline) [4, 8]: 54% | Glucose level decreased to, after insulin inhalation ([4]; NIDDM subject 6, 0.20 U/kg BW inhaled, baseline 9.27): 4.26 SI units | Time to 10% Decrease in Glucose [4, 9]: 20 min | Time to Lowest Glucose Level [4, 9]: 120 min | Maximum Decrease in Glucose (% of Baseline) [4, 9]: 61% | Glucose level decreased to, after insulin inhalation ([4]; NIDDM subject 7, 0.20 U/kg BW inhaled, baseline 13.94): 5.49 SI units | Time to 10% Decrease in Glucose [4, 10]: 60 min | Time to Lowest Glucose Level [4, 10]: 150 min | Maximum Decrease in Glucose (% of Baseline) [4, 10]: 49% | Glucose level decreased to, after insulin inhalation ([4]; NIDDM subject 8, 0.20 U/kg BW inhaled, baseline 13.30): 6.78 SI units | Mean maximum decrease in glucose from baseline ([4]; NIDDM subjects, 0.2 U/kg BW inhaled): 55±10% | Shift of blood glucose levels to the normal range ([4]; NIDDM subjects, approximately 0.2 U/kg BW aerosolized insulin, normal range 4.20-6.44 SI units): shifted blood glucose levels of five of the six NIDDM subjects to within the normal range | Maximum Decrease in Glucose (% of Baseline), mean ([4]; eight subjects (second dose for subjects 1 and 2), 0.2 U/kg BW inhaled): 52±10% and 52% | Time to 10% Decrease in Glucose, mean [4, 11]: 36 ± 15 min and 36 min | Time to Lowest Glucose Level (time to maximum decrease in blood glucose), mean [4, 11]: 138 ± 46 min and 138 min | Glucose level decreased to, after insulin inhalation ([4]; normal subject 1, 0.09 U/kg BW inhaled, baseline 4.70): 4.09 SI units | Glucose level decreased to, after insulin inhalation ([4]; normal subject 1, 0.19 U/kg BW inhaled, baseline 4.70): 3.08 SI units | Time to 10% Decrease in Glucose [4, 12]: 35 min | Time to Lowest Glucose Level [4, 12]: 80 min | Maximum Decrease in Glucose (% of Baseline) [4, 12]: 13% | Time to 10% Decrease in Glucose [4, 13]: 50 min | Time to Lowest Glucose Level [4, 13]: 140 min | Maximum Decrease in Glucose (% of Baseline) [4, 13]: 34% | Glucose level decreased to, after insulin inhalation ([4]; normal subject 2, 0.11 U/kg BW inhaled, baseline 3.95): 3.14 SI units | Glucose level decreased to, after insulin inhalation ([4]; normal subject 2, 0.21 U/kg BW inhaled, baseline 4.34): 2.24 SI units | Time to 10% Decrease in Glucose [4, 14]: 5 min | Time to Lowest Glucose Level [4, 14]: 40 min | Maximum Decrease in Glucose (% of Baseline) [4, 14]: 20% | Time to 10% Decrease in Glucose [4, 15]: 15 min | Time to Lowest Glucose Level [4, 15]: 40 min | Maximum Decrease in Glucose (% of Baseline) [4, 15]: 48% | Mean maximum decrease in glucose from baseline ([4]; normal subjects, 0.2 U/kg BW inhaled): 41±10% | Effect on blood glucose levels ([4]; normal subjects, approximately 0.2 U/kg BW aerosolized insulin to the mouth): effectively lowered blood glucose levels in the normal subjects
